Reference: patent publication US20110301233A1, “Novel Polyisoprenylated Benzophenone Derivatives from Garcinia paucinervis” (priority 2010, published 2011)

Legend:
Format in all cases: cell-based
[1] = tested on: HeLa-C3 cells; assay: Apoptosis-inducing effect: caspase-3 activation, YFP/CFP emission ratio (FRET biosensor) in HeLa-C3 cells; settings: for Apoptotic effect at 25 μM / Apoptotic effect at 50 μM / Apoptotic effect at 100 μM: 72 h
Method: The biological activity of Compounds 1-4 was evaluated for apoptosis-inducing effects using genetically engineered HeLa-C3 cells that can produce a fluorescent biosensor capable of detecting caspase-3 activation. These cells emit a green light under normal growth conditions and change to a blue light when caspase-3 is activated during apoptosis to cleave the sensor protein inside the cells. This color change allows one to use a fluorescent plate reader to directly detect the activation level of caspase-3 in HeLa-C3 cells during the course of the compound treatment in a noninvasive way. Based on our previous test results, the emission ratio of YFP (yellow fluorescent protein)/CFP (cyanfluorescent proteins) is usually between 6 and 8 in normal cells, and this ratio will decrease to a value below 3 if a compound can activate caspase-3 and kill cancer cells. Therefore, any compound that can reduce the YFP/CFP emission ratio to a value below 3 is considered positive in activating apoptosis.
Bioassay: The bioassay method was described in our previous paper with some modifications. All the testing samples were dissolved in DMSO to make stock solutions. The concentration of each stock was at least 1000 times higher than the working concentration. HeLa-C3 cells, which can detect apoptotic cell death involving caspase activation, were cultured in minimum essential medium (MEM) containing 10% fetal bovine serum, 100 U/ml penicillin, […] streptomycin, in a 5% CO2 humidity incubator at 37° C. The sample well for apoptotic activity testing was prepared by seeding a well on a 96-well plate with 7500 HeLa-C3 cells suspended in 100 μl culture medium. After 12-16 h incubation, the old medium was removed and 100 μl freshly prepared culture medium containing the testing sample at a certain working concentration was added to both the sample well and the corresponding background well. Culture medium containing 0.1% DMSO was the negative control while 500 nM paclitaxel was the positive control. After that, the plate was read repeatedly by a Perkin-Elmer Victor reader with excitation wavelength at 440±10 nm and emission wavelength at 486±8 nm for CFP (cyan fluorescent protein) and 535±8 nm for YFP (yellow fluorescent protein) at indicated time points. The data acquisition duration was up to 72 h. The YFP/CFP emission ratio was then calculated. The background fluorescence was measured from the wells containing only medium. After subtracting the background fluorescence from the recorded signal, net YFP and CFP readings were obtained. In this paper, Y/C emission ratio is used to represent the effect of FRET, which is equal to the net YFP reading divided by the net CFP reading from the same well. If YFP/CFP emission ratio was reduced below 3, the testing sample was considered as a good apoptotic inducer at that concentration. All samples were tested in triplicate. The whole experiment was repeated for three times.

[2] = tested on: HeLa-C3 cells; assay: Cell morphology changes during compound treatment (FIG. 5)
Method: Various cell morphologies were recorded at the indicated time points. The control cells have normal attached cell morphology through the course of the experiment. Cells have shrinkage and detached morphology when they were treated with either the anticancer drug paclitaxel or other compounds, confirming their ability to kill cancer cells.
In addition to detecting the caspase activation using our HeLa-C3 cells, the cell morphology changes was also examined after the treatment of the tested compounds.

[3] = tested on: HeLa cells; assay: MTT assay, HeLa cell growth inhibition; settings: for IC50: HeLa cells treated for 72 h, MTT; for HeLa cell growth inhibiting effect: HeLa cells, 72 h, IC50 below or near 10
Method: IC50 of four new compounds was measured using MTT assay. MTT powder was dissolved in PBS at a concentration of 5 mg/mL. For MTT assay, 10 μL of MTT solution was added into each well of a 96-well plate. After 2 h incubation at 37° C., 100 μL 10% SDS solution with 0.01 M HCl was added to dissolve the purple crystals. After 24 h incubation, the optical density (OD) readings at 595 nm were measured using a plate reader. Firstly, 2,500 HeLa cells suspended in 100 μL MEM medium were seeded respectively in a 96-well plate. After 24 h incubation, fresh medium that contained various concentrations of each compound were added into the 96-well plate and changed the old medium. The concentrations applied were ranged from 100 μM to 1.5625 μM, which was achieved by doing two-fold dilutions for 6 times. The OD values of the control group at 0 h and 72 h together with the compound treated groups at 72 h from the MTT assay were measured using a plate reader. IC50 is the concentration of a compound inhibiting 50% of the cell growth.

IC50 [3] | Compound | Apoptotic effect at 25 μM [1] | Apoptotic effect at 50 μM [1] | Apoptotic effect at 100 μM [1] | cell morphology ([2]; 25 μM, 24, 48 and 72 h) | HeLa cell growth inhibiting effect [3] | caspase-3 activation ([1]; within 72 h at 100 μM and 50 μM) | cell morphology ([2]; 50 μM, 24, 48 and 72 h) | cell morphology ([2]; 500 nM, positive control)
10 ± 0.5 µM | CC(C)=CC[C@H]1C[C@@]23CC4(CCC(C)(C)C[C@]4(C)O)OC2=C(C(=O)c2ccc(O)c(O)c2)C(=O)[C@](CC=C(C)C)(C3=O)C1(C)C (relative stereo) [Compound 1, Paucinone A] | + (“+” means the YFP/CFP emission ratio of compound treated HeLa-C3 cells was below 3 at 72 h.) | + (“+” means the YFP/CFP emission ratio of compound treated HeLa-C3 cells was below 3 at 72 h.) | + (“+” means the YFP/CFP emission ratio of compound treated HeLa-C3 cells was below 3 at 72 h.) | cell shrinkage | strong HeLa cell growth inhibiting effects | – | – | –
8.2 ± 0.8 µM | CC(C)=CC[C@H]1C[C@@]23CC4(CCC(C)(C)C[C@@]4(C)O)OC2=C(C(=O)c2ccc(O)c(O)c2)C(=O)[C@](CC=C(C)C)(C3=O)C1(C)C (relative stereo) [Compound 2, Paucinone B] | + (“+” means the YFP/CFP emission ratio of compound treated HeLa-C3 cells was below 3 at 72 h.) | + (“+” means the YFP/CFP emission ratio of compound treated HeLa-C3 cells was below 3 at 72 h.) | + (“+” means the YFP/CFP emission ratio of compound treated HeLa-C3 cells was below 3 at 72 h.) | cell shrinkage | strong HeLa cell growth inhibiting effects | – | – | –
5.8 ± 0.6 µM | C=C1CCCC(C)(C)[C@H]1C[C@H]1C[C@@]23CC(C(C)(C)O)OC2=C(C(=O)c2ccc(O)c(O)c2)C(=O)[C@](CC=C(C)C)(C3=O)C1(C)C (relative stereo) [Compound 4, Paucinone D] | + (“+” means the YFP/CFP emission ratio of compound treated HeLa-C3 cells was below 3 at 72 h.) | + (“+” means the YFP/CFP emission ratio of compound treated HeLa-C3 cells was below 3 at 72 h.) | + (“+” means the YFP/CFP emission ratio of compound treated HeLa-C3 cells was below 3 at 72 h.) | cell shrinkage | strong HeLa cell growth inhibiting effects | – | – | –
– | CC(=O)O[C@H]1C(=O)[C@@]2(C)[C@H]([C@H](OC(=O)c3ccccc3)[C@]3(O)C[C@H](OC(=O)[C@H](O)[C@@H](NC(=O)c4ccccc4)c4ccccc4)C(C)=C1C3(C)C)[C@]1(OC(C)=O)CO[C@@H]1C[C@@H]2O [paclitaxel, reference compound] | – | – | – | – | – | – | – | typical cell shrinkage morphology

Compound | IC50 [3] | Apoptotic effect at 25 μM [1] | Apoptotic effect at 50 μM [1] | Apoptotic effect at 100 μM [1] | cell morphology ([2]; 25 μM, 24, 48 and 72 h) | HeLa cell growth inhibiting effect [3] | caspase-3 activation ([1]; within 72 h at 100 μM and 50 μM) | cell morphology ([2]; 50 μM, 24, 48 and 72 h) | cell morphology ([2]; 500 nM, positive control)
CC(C)=CC[C@H]1C[C@@]23CC4(CCC(C)(C)C[C@]4(C)O)OC2=C(OC(=O)c2ccc(O)c(O)c2)C(=O)[C@](CC=C(C)C)(C3=O)C1(C)C (relative stereo) [Compound 3, Paucinone C] | 24.3 ± 0.6 µM | − (“−” means the YFP/CFP emission ratio of compound treated HeLa-C3 cells was above 3 at 72 h.) | + (“+” means the YFP/CFP emission ratio of compound treated HeLa-C3 cells was below 3 at 72 h.) | + (“+” means the YFP/CFP emission ratio of compound treated HeLa-C3 cells was below 3 at 72 h.) | – | – | could activate caspase-3 | cell shrinkage | –
